Measurements from patent US20210317111A1, “NOVEL MEDICAMENT FOR TREATING INFLAMMATORY BOWEL DISEASE” (OTSUKA PHARMACEUTICAL CO., LTD., priority 2018, published 2021).

Test system: DSS-induced colitis
Assay: DSS-induced colitis model, stool scores
Type: in vivo, rat
Settings: for deaths: 8 animals per group
Text: A colitis model induced by dextran sulfate sodium (DSS) is widely used as an experimental ulcerative colitis model having similarities of human ulcerative colitis regarding suppression of weight gain, colitis symptoms such as bloody stools and diarrhea, and injury formation in the large intestine. The effect of the present compound on the ulcerative colitis model was examined, and it was compared with salazosulfapyridine (SASP) clinically used as a therapeutic agent for ulcerative colitis.
Symptoms of colitis were induced by allowing rats to freely drink 3% dextran sulfate sodium (DSS) solution for 10 days. […] For the observation of stool symptoms, the degree of stool condition was scored as the score of stool firmness (Stool Consistency Score: 0, 1, 2, 3) and blood stool (Bloody Stool Score: 0, 1, 2, 3). The total of Stool Consistency Score and Bloody Stool Score was taken as the Total Stool Score. Each group was composed of 8 animals. Salazosulfapyridine (SASP), which is an already-existing drug for treating inflammatory bowel disease, the present compound or the vehicle were administrated for 10 days from the start date of 3% DSS freely drinking.

[1] = 11th day, present compound 1, 3, 10 mg/kg (P<0.01) or SASP 100 mg/kg (P<0.05) orally twice a day, Dunnett's test
[2] = present compound groups, orally twice a day

Structure (SMILES): Cc1c(-c2cnc(N)c(C#N)c2)c(F)cc2c(=O)c(C(=O)O)cn(C3CC3)c12 [the present compound, 7-(6-amino-5-cyanopyridin-3-yl)-1-cyclopropyl-6-fluoro-1,4-dihydro-8-methyl-4-oxo-3-quinoline-carboxylic acid]
- deaths (1 mg/kg orally twice a day): One
- deaths (3 mg/kg orally twice a day): no death
- effect on blood stool score at 10 mg/kg (10 mg/kg orally twice a day): remarkable deterioration suppression effect
- deaths (10 mg/kg orally twice a day): no death
- bloody stool score vs vehicle control (11th day, present compound 1 mg/kg (P<0.05), 3, 10 mg/kg (P<0.01) or SASP 100 mg/kg orally twice a day, Dunnett's test): Significant differences
- stool firmness (Stool Consistency Score) vs vehicle control [1]: Significant differences
- total stool score vs vehicle control [1]: Significant differences
- day from which deterioration suppression effect on blood stool score was observed [2]: from the 6th day
- day from which deterioration suppression effect on stool firmness score was observed [2]: from the 9th day
